Results reported in US20240417410A1, “TRICYCLIC COMPOUNDS FOR THE TREATMENT OF CANCER” (Hoffmann-La Roche Inc., priority 2023, published 2024).

Key:
[1] = system: phosphorylation of ERK, KRAS G12C in NCI-H358 cells; assay: pERK inhibition assay; assay type: cell-based; settings: Homo sapiens, NCI-H358, 4 h
Outline: (§1)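 Cells in RPMI-1640 with 10% FBS were plated overnight (30,000/well H358, 20,000 AGS, 30,000 SW620) and treated 4 h with compounds at 0.5% DMSO. After formaldehyde fixation and methanol permeabilization, pERK was detected by in-cell ELISA with HRP secondary and TMB (OD450); IC50 from 4-parameter fit.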

[2] = system: phosphorylation of ERK, KRAS G12V in SW620; assay: pERK inhibition assay; assay type: cell-based; settings: Homo sapiens, SW-620, 4 h, SW620 cells
Outline: as §1

[3] = system: phosphorylation of ERK, KRAS G12D in AGS cells; assay: pERK inhibition assay; assay type: cell-based; settings: Homo sapiens, AGS, 4 h
Outline: as §1

[4] = system: NCI-H358 cells (KRAS G12C); assay: Cell viability assay (Cell Counting Kit-8, 3-day); assay type: cell-based, human; settings: Homo sapiens, NCI-H358, 72 h, NCI-H358, 72 hrs incubation
Outline: (§2)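 Read-out is CCK-8 absorbance (OD450 minus OD650, 2 hrs after reagent), reflecting NADPH after 72 hrs of compound exposure in 0.5% DMSO. Seeding density was 5,000 cells/well for NCI-H358 and 2,000 for AGS and SW620. IC50 derived by 4-parameter sigmoidal fitting.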

AGS cells (KRAS G12D) = assay: Cell viability assay (Cell Counting Kit-8, 3-day); assay type: cell-based, human; settings: Homo sapiens, 72 h, 72 hrs incubation
Outline: as §2

SW620 cells (KRAS G12V) = assay: Cell viability assay (Cell Counting Kit-8, 3-day); assay type: cell-based, human; settings: Homo sapiens, SW-620; SW620, 72 hrs incubation
Outline: as §2

KRAS G12C-BRAF complex = KRAS G12C-BRAF complex (Homo sapiens (Human), UniProt P01116+P62937, G12C); assay: KRAS-BRAF with CYPA (500 nM) interaction assay (TR-FRET, Example 136); assay type: biochemical; settings: KRAS G12C-BRAF disruption
KRAS G12C-BRAF complex, sequence (P01116-2 other isoform, or with tags, fused parts or gaps G12C): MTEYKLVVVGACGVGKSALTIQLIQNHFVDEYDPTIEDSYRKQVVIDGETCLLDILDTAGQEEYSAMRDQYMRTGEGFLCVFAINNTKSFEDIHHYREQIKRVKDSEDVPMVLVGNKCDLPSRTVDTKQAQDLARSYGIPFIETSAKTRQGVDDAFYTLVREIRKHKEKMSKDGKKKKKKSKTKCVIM
KRAS G12C-BRAF complex, sequence (P62937 whole entry): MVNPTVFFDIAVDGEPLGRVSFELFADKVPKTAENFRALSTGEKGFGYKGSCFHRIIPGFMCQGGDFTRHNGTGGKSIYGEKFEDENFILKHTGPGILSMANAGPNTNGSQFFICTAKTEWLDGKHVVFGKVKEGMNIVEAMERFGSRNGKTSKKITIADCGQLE

Row | SMILES | IC50 [1] [nM] | IC50 [2] [nM] | IC50 [3] [nM] | IC50 [4] [nM] | IC50 (AGS cells (KRAS G12D)) [nM] | IC50 (SW620 cells (KRAS G12V)) [nM] | IC50 (KRAS G12C-BRAF complex) [nM]
1 | CO[C@@H](C)c1ncc(N2CCN(C)CC2)cc1-c1c2c3cc(cc4c3n1CCC4)-c1csc(n1)C[C@H](NC(=O)[C@@H]1[C@@H]3COC[C@@H]31)C(=O)N1CCC[C@H](N1)C(=O)OCC(C)(C)C2 (atropisomer, axis not shown; (M)) [Example 42, (1R,5S,6s)-N-[(7S,13S)-(20M)-20-[2-[(1S)-1-methoxyethyl]-5-(4-methylpiperazin-1-yl)-3-pyridyl]-17,17-dimethyl-8,14-dioxo-15-oxa-4-thia-9,21,30,31-tetrazahexacyclo[23.3.1.1^2,5.1^9,13.0^19,27.0^21,26]hentriaconta-1 (28),2,5 (31), 19,25 (29),26-hexaen-7-yl]-3-oxabicyclo[3.1.0]hexane-6-carboxamide] | 0.9 | 1.4 | 8.1 | 5.4 | 22.4 | 1.3 | 20.5
2 | CO[C@@H](C)c1ncc(N2CCN(C)CC2)cc1-c1c2c3cc(cc4c3n1CCO4)-c1csc(n1)C[C@H](NC(=O)[C@H]1[C@H](C)[C@@H]1C)C(=O)N1CCC[C@H](N1)C(=O)OCC(C)(C)C2 (atropisomer, axis not shown; (M)) [Example 45, (1r,2S,3R)-N-[(7S,13S)-(20M)-20-[2-[(1S)-1-methoxyethyl]-5-(4-methylpiperazin-1-yl)-3-pyridyl]-17,17-dimethyl-8,14-dioxo-15,24-dioxa-4-thia-9,21,30,31-tetrazahexacyclo[23.3.1.1^2,5.1^9,13.0^19,27.0^21,26]hentriaconta-1 (28),2,5 (31),19,25 (29),26-hexaen-7-yl]-2,3-dimethyl-cyclopropanecarboxamide] | 0.6 | 0.2 | 2.1 | 1.8 | 3.6 | 0.2 | 14.1
3 | CO[C@@H](C)c1ncc(N2CCN(C)CC2)cc1-c1c2c3cc(cc4c3n1CCC4)-c1csc(n1)C[C@H](NC(=O)[C@H]1C[C@@H]1c1cncnc1)C(=O)N1CCC[C@H](N1)C(=O)OCC(C)(C)C2 (atropisomer, axis not shown; (M)) [Example 47, (1S,2S)-N-[(7S,13S)-(20M)-20-[2-[(1S)-1-methoxyethyl]-5-(4-methylpiperazin-1-yl)-3-pyridyl]-17,17-dimethyl-8,14-dioxo-15-oxa-4-thia-9,21,30,31-tetrazahexacyclo[23.3.1.1^2,5.1^9,13.0^19,27.0^21,26]hentriaconta-1 (28),2,5 (31), 19,25 (29),26-hexaen-7-yl]-2-pyrimidin-5-yl-cyclopropanecarboxamide] | 1.2 | 1.4 | 4.8 | 2.5 | 10.2 | 0.9 | 21.2
4 | CO[C@@H](C)c1ncc(N2CCN(C)CC2)cc1-c1c2c3cc(cc4c3n1CCC4)-c1csc(n1)C[C@H](NC(=O)[C@H]1[C@@H]3CC(F)(F)C[C@@H]31)C(=O)N1CCC[C@H](N1)C(=O)OCC(C)(C)C2 (atropisomer, axis not shown; (M)) [Example 48, (1S,5R)-3,3-difluoro-N-[(7S,13S)-(20M)-20-[2-[(1S)-1-methoxyethyl]-5-(4-methylpiperazin-1-yl)-3-pyridyl]-17,17-dimethyl-8,14-dioxo-15-oxa-4-thia-9,21,30,31-tetrazahexacyclo[23.3.1.1^2,5.1^9,13.0^19,27.0^21,26]hentriaconta-1 (28),2,5 (31), 19,25 (29),26-hexaen-7-yl]bicyclo[3.1.0]hexane-6-carboxamide] | 1.2 | 1 | 10.1 | 9.5 | 26.5 | 1.7 | 4.4
5 | CO[C@@H](C)c1ncc(N2CCN3CCCC[C@@H]3C2)cc1-c1c2c3cc(cc4c3n1CCC4)-c1csc(n1)C[C@H](NC(=O)[C@H]1C[C@@H]1C)C(=O)N1CCC[C@H](N1)C(=O)OCC(C)(C)C2 (atropisomer, axis not shown; (M)) [Example 49, (1S,2S)-N-[(7S,13S)-(20M)-20-[5-[(9αR)-1,3,4,6,7,8,9,9a-octahydropyrido[1,2-a]pyrazin-2-yl]-2-[(1S)-1-methoxyethyl]-3-pyridyl]-17,17-dimethyl-8,14-dioxo-15-oxa-4-thia-9,21,30,31-tetrazahexacyclo[23.3.1.1^2,5.1^9,13.0^19,27.0^21,26]hentriaconta-1 (28),2,5 (31), 19,25 (29),26-hexaen-7-yl]-2-methyl-cyclopropanecarboxamide] | 2.4 | 1.3 | 13.7 | 9.7 | 29.1 | 1.7 | 17.5
6 | CO[C@@H](C)c1ncc(N2CCN(C)CC2)cc1-c1c2c3cc(cc4c3n1CCC4)-c1csc(n1)C[C@H](NC(=O)[C@H]1C[C@@H]1c1ccncn1)C(=O)N1CCC[C@H](N1)C(=O)OCC(C)(C)C2 (atropisomer, axis not shown; (M)) [Example 50, (1S,2S)-N-[(7S,13S)-(20M)-20-[2-[(1S)-1-methoxyethyl]-5-(4-methylpiperazin-1-yl)-3-pyridyl]-17,17-dimethyl-8,14-dioxo-15-oxa-4-thia-9,21,30,31-tetrazahexacyclo[23.3.1.1^2,5.1^9,13.0^19,27.0^21,26]hentriaconta-1 (28),2,5 (31), 19,25 (29),26-hexaen-7-yl]-2-pyrimidin-4-yl-cyclopropanecarboxamide] | 3.5 | 2.4 | 20.1 | 24.1 | 72.6 | 3.8 | 22
7 | CO[C@@H](C)c1ncc(N2CCN(C)CC2)cc1-c1c2c3cc(cc4c3n1CCO4)-c1csc(n1)C[C@H](NC(=O)[C@H]1C[C@@H]1c1ccccc1)C(=O)N1CCC[C@H](N1)C(=O)OCC(C)(C)C2 (atropisomer, axis not shown; (M)) [Example 51, (1S,2S)-N-[(7S,13S)-(20M)-20-[2-[(1S)-1-methoxyethyl]-5-(4-methylpiperazin-1-yl)-3-pyridyl]-17,17-dimethyl-8,14-dioxo-15,24-dioxa-4-thia-9,21,30,31-tetrazahexacyclo[23.3.1.1^2,5.1^9,13.0^19,27.0^21,26]hentriaconta-1 (29),2,5 (31), 19,25,27-hexaen-7-yl]-2-phenyl-cyclopropanecarboxamide] | 1 | 0.7 | 4.8 | 5.9 | 13.3 | 1.4 | 21.1
8 | CO[C@@H](C)c1ncc(N2CCN(C)CC2)cc1-c1c2c3cc(cc4c3n1CCO4)-c1csc(n1)C[C@H](NC(=O)[C@@H]1[C@@H]3COC[C@@H]31)C(=O)N1CCC[C@H](N1)C(=O)OCC(C)(C)C2 (atropisomer, axis not shown; (M)) [Example 52, (1R,5S,6s)-N-[(7S,13S)-(20M)-20-[2-[(1S)-1-methoxyethyl]-5-(4-methylpiperazin-1-yl)-3-pyridyl]-17,17-dimethyl-8,14-dioxo-15,24-dioxa-4-thia-9,21,30,31-tetrazahexacyclo[23.3.1.1^2,5.1^9,13.0^19,27.0^21,26]hentriaconta-1 (28),2,5 (31), 19,25 (29),26-hexaen-7-yl]-3-oxabicyclo[3.1.0]hexane-6-carboxamide] | 1.4 | 0.7 | 5.1 | 7 | 12 | 1.1 | 16.1
